From PubChem BioAssay AID248 (DTP/NCI, 2004)
“And” between values parts separate entries of the source, which are not always exact repeats. Identical values can stand only once. Inconclusive results and toxic doses are left out. Rule as the data show it: active = T/C of 150% or more; inactive = T/C below 125%.

Tested on: L1210 leukemia ip in BDF1 mice, survival T/C
Assay: NCI In Vivo Anticancer Drug Screen. Data for tumor model L1210 Leukemia (intraperitoneal) in B6D2F1 (BDF1) mice
Conditions: endpoint: mean survival time, higher = longer survival
Outline: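 Mice bearing the transplanted tumor received compound or vehicle. Survival of the treated group was divided by that of the vehicle-treated control group to give the ratio.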

[1] = dose: 100.0 mg/kg/injection, schedule: Q01DX001 (ip), vehicle: carboxymethylcellulose (CMC)
[2] = dose: 200.0 mg/kg/injection, schedule: Q01DX001 (ip), vehicle: carboxymethylcellulose (CMC)
[3] = dose: 400.0 mg/kg/injection, schedule: Q01DX001 (ip), vehicle: carboxymethylcellulose (CMC)

Measured: T/C

CC(=O)N(c1ccccc1)c1nc(CCl)cs1
inactive: [1] 100 % of control | dose: 100.0 mg/kg/injection, schedule: Q01DX009 (ip), vehicle: carboxymethylcellulose (CMC) 88 % of control | dose: 100.0 mg/kg/injection, schedule: Q04DX002 (ip), vehicle: carboxymethylcellulose (CMC) 97 % of control and 100 % of control | dose: 100.0 mg/kg/injection, schedule: Q04DX003 (ip), vehicle: carboxymethylcellulose (CMC) 100 % of control | [2] 108 % of control | dose: 200.0 mg/kg/injection, schedule: Q01DX009 (ip), vehicle: carboxymethylcellulose (CMC) 98 % of control and 89 % of control | dose: 200.0 mg/kg/injection, schedule: Q04DX002 (ip), vehicle: carboxymethylcellulose (CMC) 95 % of control and 103 % of control | dose: 200.0 mg/kg/injection, schedule: Q04DX003 (ip), vehicle: carboxymethylcellulose (CMC) 102 % of control | [3] 93 % of control | dose: 400.0 mg/kg/injection, schedule: Q01DX009 (ip), vehicle: carboxymethylcellulose (CMC) 98 % of control and 103 % of control | dose: 400.0 mg/kg/injection, schedule: Q04DX002 (ip), vehicle: carboxymethylcellulose (CMC) 100 % of control and 102 % of control | dose: 400.0 mg/kg/injection, schedule: Q04DX003 (ip), vehicle: carboxymethylcellulose (CMC) 104 % of control

CC(=O)C(Br)CC(C)C (stereo unspecified)
inactive: dose: 75.0 mg/kg/injection, schedule: Q01DX001 (ip), vehicle: saline 102 % of control | dose: 150.0 mg/kg/injection, schedule: Q01DX001 (ip), vehicle: saline 105 % of control | dose: 300.0 mg/kg/injection, schedule: Q01DX001 (ip), vehicle: saline 100 % of control

COc1c2c(c(C(=O)O)c3ccncc13)CC(C)(C)C2
inactive: dose: 50.0 mg/kg/injection, schedule: Q01DX009 (ip), vehicle: saline with Tween-80 102 % of control | dose: 100.0 mg/kg/injection, schedule: Q01DX009 (ip), vehicle: saline with Tween-80 98 % of control | dose: 200.0 mg/kg/injection, schedule: Q01DX009 (ip), vehicle: saline with Tween-80 101 % of control

O=C(Nc1ccccc1F)N(CC(O)c1ccccc1)C1CCCCC1 (stereo unspecified)
inactive: dose: 100.0 mg/kg/injection, schedule: Q01DX009 (ip), vehicle: Klucel (hydroxypropylcellulose) (HPC) 97 % of control | dose: 200.0 mg/kg/injection, schedule: Q01DX009 (ip), vehicle: Klucel (hydroxypropylcellulose) (HPC) 95 % of control | dose: 400.0 mg/kg/injection, schedule: Q01DX009 (ip), vehicle: Klucel (hydroxypropylcellulose) (HPC) 94 % of control

CCOC(=O)CC1=NC(C)(C)CC(C)O1 (stereo unspecified)
inactive: dose: 100.0 mg/kg/injection, schedule: Q04DX003 (ip), vehicle: saline sonified 98 % of control | dose: 200.0 mg/kg/injection, schedule: Q04DX003 (ip), vehicle: saline sonified 92 % of control | dose: 400.0 mg/kg/injection, schedule: Q04DX003 (ip), vehicle: saline sonified 115 % of control

CN(C)c1n[nH]c(N=[N+]=[N-])n1
inactive: dose: 100.0 mg/kg/injection, schedule: Q04DX002 (ip), vehicle: saline with Tween-80 104 % of control | dose: 200.0 mg/kg/injection, schedule: Q04DX002 (ip), vehicle: saline with Tween-80 90 % of control | dose: 400.0 mg/kg/injection, schedule: Q04DX002 (ip), vehicle: saline with Tween-80 104 % of control

CCOC(=O)Nc1nn[nH]n1
inactive: dose: 50.0 mg/kg/injection, schedule: Q01DX001 (ip), vehicle: carboxymethylcellulose (CMC) 92 % of control | [1] 97 % of control | [2] 101 % of control | [3] 90 % of control

CCC[CH2][Sn](=[O])[CH2]CCC
inactive: dose: 1.5 mg/kg/injection, schedule: Q01DX001 (ip), vehicle: saline with Tween-80 90 % of control | dose: 3.0 mg/kg/injection, schedule: Q01DX001 (ip), vehicle: saline with Tween-80 100 % of control | dose: 6.0 mg/kg/injection, schedule: Q01DX001 (ip), vehicle: saline with Tween-80 107 % of control

O=C(O)C1C2CC3OC(=O)C1C3C2O (stereo unspecified)
inactive: dose: 100.0 mg/kg/injection, schedule: Q01DX009 (ip), vehicle: saline 103 % of control | dose: 100.0 mg/kg/injection, schedule: Q04DX003 (ip), vehicle: saline with Tween-80 96 % of control | dose: 200.0 mg/kg/injection, schedule: Q01DX009 (ip), vehicle: saline 94 % of control | dose: 200.0 mg/kg/injection, schedule: Q04DX003 (ip), vehicle: saline with Tween-80 86 % of control | dose: 400.0 mg/kg/injection, schedule: Q01DX009 (ip), vehicle: saline 100 % of control | dose: 400.0 mg/kg/injection, schedule: Q04DX003 (ip), vehicle: saline with Tween-80 86 % of control

Cc1ccc(C(=O)Nc2ccc(OCCCc3c(N)nc(N)nc3N)cc2)cc1S(=O)(=O)F
inactive: dose: 25.0 mg/kg/injection, schedule: Q04DX003 (ip), vehicle: Klucel (hydroxypropylcellulose) (HPC) 103 % of control | dose: 50.0 mg/kg/injection, schedule: Q04DX003 (ip), vehicle: Klucel (hydroxypropylcellulose) (HPC) 97 % of control | dose: 100.0 mg/kg/injection, schedule: Q04DX003 (ip), vehicle: Klucel (hydroxypropylcellulose) (HPC) 103 % of control

CSc1ccc(OCC2CO2)cc1C (stereo unspecified)
inactive: dose: 100.0 mg/kg/injection, schedule: Q04DX002 (ip), vehicle: saline 96 % of control | dose: 200.0 mg/kg/injection, schedule: Q04DX002 (ip), vehicle: saline 111 % of control | dose: 400.0 mg/kg/injection, schedule: Q04DX002 (ip), vehicle: saline 104 % of control

O=C(O)CSCc1cc(=O)[nH]c(=O)[nH]1
inactive: dose: 100.0 mg/kg/injection, schedule: Q04DX003 (ip), vehicle: saline 96 % of control | dose: 200.0 mg/kg/injection, schedule: Q04DX003 (ip), vehicle: saline 96 % of control | dose: 400.0 mg/kg/injection, schedule: Q04DX003 (ip), vehicle: saline 98 % of control

COc1ccc(OC)c(C2(O)C=C(C)C(=O)C=C2C)c1 (stereo unspecified)
inactive: dose: 150.0 mg/kg/injection, schedule: Q01DX001 (ip), vehicle: Klucel (hydroxypropylcellulose) (HPC) 91 % of control | dose: 300.0 mg/kg/injection, schedule: Q01DX001 (ip), vehicle: Klucel (hydroxypropylcellulose) (HPC) 91 % of control
